Results taken from patent publication US20020183518A1, “Modulators of proteins with phosphotyrosine recognition units” (ONTOGEN CORPORATION, priority 1995, published 2002).

Columns and labels:
[1] = molecular target: T1, CD45 (Homo sapiens, UniProt P08575); assay: In vitro PTPase inhibition assay (pNPP, colorimetric), CD45; assay type: biochemical; conditions: Table 9; read-out: IC50 values against CD45
T1 construct: The PCR reaction product (2127 bp) was digested with Sma I (New England Biolabs, Beverly Mass.) to yield a 2110 bp product; made in house; host or cells: E. coli DH5α, plasmid pET24C-CD45
T1 sequence (P08575 599-1306 limits assumed): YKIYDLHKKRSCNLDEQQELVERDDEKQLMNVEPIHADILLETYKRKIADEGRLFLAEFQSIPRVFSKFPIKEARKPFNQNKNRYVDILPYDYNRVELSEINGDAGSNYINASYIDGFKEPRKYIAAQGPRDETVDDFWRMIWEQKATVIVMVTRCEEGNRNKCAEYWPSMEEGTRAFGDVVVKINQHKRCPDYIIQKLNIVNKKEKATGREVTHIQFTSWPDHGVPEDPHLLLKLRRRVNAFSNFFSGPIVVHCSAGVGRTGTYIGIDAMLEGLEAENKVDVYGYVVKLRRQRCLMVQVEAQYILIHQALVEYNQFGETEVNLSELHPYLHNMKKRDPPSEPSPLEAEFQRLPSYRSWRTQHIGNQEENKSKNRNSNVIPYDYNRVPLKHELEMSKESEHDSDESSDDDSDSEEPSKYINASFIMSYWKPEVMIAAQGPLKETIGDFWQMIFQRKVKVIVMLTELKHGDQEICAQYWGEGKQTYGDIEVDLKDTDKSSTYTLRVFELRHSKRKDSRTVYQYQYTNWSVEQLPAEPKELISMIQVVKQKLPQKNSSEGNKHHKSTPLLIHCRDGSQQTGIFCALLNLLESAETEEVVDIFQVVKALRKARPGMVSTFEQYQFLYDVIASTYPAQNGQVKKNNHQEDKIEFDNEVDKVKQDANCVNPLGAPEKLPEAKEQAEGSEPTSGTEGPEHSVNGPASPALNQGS
Protocol: CD45 enzymatic activity of samples was assayed in microtiter plates as follows. […] Louis Mo.), and 80 ul of activity assay buffer (100 mM sodium acetate, pH 6.0, 1 mM EDTA, 0.1% Triton X-100, 15 mM bME). Reactions were mixed gently and incubated at 37° C. for 60 minutes. […] To determine the enzymatic activity, absorbance readings of the reactions were measured at 405 nm using a Molecular Devices Thermomax Plate Reader (Menlo Park Calif.). […] Purified phosphatase was added to the reaction mixtures to begin the reactions; the reactions were incubated at 37° C. for 60 min. […] (for PTP-1C and PTPα assays), stopped, and colorimetrically analyzed as described above. […] First, absorbance readings from the negative control reactions were treated as a baseline and subtracted from the absorbance readings of the experimental reactions. Then, for each reaction, a percent inhibition was calculated using the following formula: […] For each inhibitor compound tested, an IC50 concentration was calculated from a best-fit computer analysis of the calculated percent inhibition for the various dilutions of the compound. CD45 enzymatic activity of samples was assayed in microtiter plates as follows. […] Louis Mo.), and 80 ul of activity assay buffer (100 mM sodium acetate, pH 6.0, 1 mM EDTA, 0. 1% Triton X-100, 15 mM bME). Reactions were mixed gently and incubated at 37° C. for 60 minutes. […] To determine the enzymatic activity, absorbance readings of the reactions were measured at 405 nm using a Molecular Devices Thermomax Plate Reader (Menlo Park Calif.). […] Purified phosphatase was added to the reaction mixtures to begin the reactions; the reactions were incubated at 37° C. for 60 min. […] (for PTP-1C and PTPα assays), stopped, and calorimetrically analyzed as described above. […] First, absorbance readings from the negative control reactions were treated as a baseline and subtracted from the absorbance readings of the experimental reactions. Then, for each reaction, a percent inhibition was calculated using the following formula: […] For each inhibitor compound tested, an IC50 concentration was calculated from a best-fit computer analysis of the calculated percent inhibition for the various dilutions of the compound.

[2] = molecular target: T2, PTP-1B (Homo sapiens, UniProt P18031); assay: In vitro PTPase inhibition assay (pNPP, colorimetric), PTP-1B; assay type: biochemical; conditions: Table 9; read-out: IC50 values against PTP1B
T2 construct: known to encode a 321 amino acid fragment containing the PTP-1B catalytic domain and having PTPase activity; made in house; host or cells: E. coli DH5α, plasmid pGEX-3X-PTP-1B
T2 sequence (P18031 3-277 limits assumed): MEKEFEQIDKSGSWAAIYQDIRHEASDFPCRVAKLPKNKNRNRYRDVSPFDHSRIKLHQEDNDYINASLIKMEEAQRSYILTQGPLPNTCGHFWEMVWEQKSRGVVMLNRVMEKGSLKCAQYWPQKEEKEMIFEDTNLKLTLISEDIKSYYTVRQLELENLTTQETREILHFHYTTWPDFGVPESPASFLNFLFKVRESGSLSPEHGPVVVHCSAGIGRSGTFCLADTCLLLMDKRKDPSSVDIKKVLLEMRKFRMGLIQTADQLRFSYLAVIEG
Protocol: PTP-1B enzymatic activity of samples was assayed in microtiter plates as follows. The protein concentration of the PTP-1B enzyme preparation was determined using the Bio-Rad Protein Assay kit (Bio-Rad, Hercules Calif.). […] Reactions were mixed gently and incubated at 37° C. for 60 minutes. Enzymatic cleavage of phosphate from pNPP (a tyrosine phosphate analog) is marked by a colorimetric change in this substrate. See, e.g., Imbert et al., Biochem J., 297:163-173 (1994); Ghosh and Miller, Biochem. Biophys. Res. […] Zanke et al., Eur. J. […] To determine the enzymatic activity, absorbance readings of the reactions were measured at 405 nm using a Molecular Devices Thermomax Plate Reader (Menlo Park Calif.). […] Purified phosphatase was added to the reaction mixtures to begin the reactions; the reactions were incubated at 37° C. for 60 min. […] (for PTP-1C and PTPα assays), stopped, and colorimetrically analyzed as described above. […] First, absorbance readings from the negative control reactions were treated as a baseline and subtracted from the absorbance readings of the experimental reactions. Then, for each reaction, a percent inhibition was calculated using the following formula: […] For each inhibitor compound tested, an IC50 concentration was calculated from a best-fit computer analysis of the calculated percent inhibition for the various dilutions of the compound. PTP-1B enzymatic activity of samples was assayed in microtiter plates as follows. The protein concentration of the PTP-1B enzyme preparation was determined using the Bio-Rad Protein Assay kit (Bio-Rad, Hercules Calif.). […] Reactions were mixed gently and incubated at 37° C. for 60 minutes. Enzymatic cleavage of phosphate from pNPP (a tyrosine phosphate analog) is marked by a colorimetric change in this substrate. See, e.g., Imbert et al., Biochem J., 297:163-173 (1994); Ghosh and Miller, Biochem. Biophys. Res. […] Zanke et al., Eur. […] To determine the enzymatic activity, absorbance readings of the reactions were measured at 405 nm using a Molecular Devices Thermomax Plate Reader (Menlo Park Calif.). […] Purified phosphatase was added to the reaction mixtures to begin the reactions; the reactions were incubated at 37° C. for 60 min. […] (for PTP-1C and PTPα assays), stopped, and calorimetrically analyzed as described above. […] First, absorbance readings from the negative control reactions were treated as a baseline and subtracted from the absorbance readings of the experimental reactions. Then, for each reaction, a percent inhibition was calculated using the following formula: […] For each inhibitor compound tested, an IC50 concentration was calculated from a best-fit computer analysis of the calculated percent inhibition for the various dilutions of the compound.

Row | Structure (SMILES) | IC50 [1] [µM] | IC50 [2] [µM]
1 | COC(=O)c1ccc2nc(-c3ccc(/C=C/C(=O)O)cc3)c(-c3ccc(/C=C/C(=O)O)cc3)nc2c1 [Compound 156] | 1.3 | 1.7
2 | COC(=O)c1ccc2cc(-c3nc(-c4ccc(/C=C/C(=O)O)cc4)c(-c4ccc(/C=C/C(=O)O)cc4)[nH]3)[nH]c2c1 [Compound 64] | 6.4 | 3
3 | CCCCNC(=O)c1oc(-c2ccc(/C=C/C(=O)O)cc2)nc1-c1ccc(F)cc1 [Compound 148] | – | 9
4 | O=C(O)/C=C/c1ccc(-c2nc(-c3c(F)c(F)c(F)c(F)c3F)[nH]c2-c2ccc(/C=C/C(=O)O)cc2)cc1 [Compound 84] | 2.7 | 1.2
5 | O=C(O)/C=C/c1ccc(-c2nc(-c3ccc4ccc5cccc6ccc3c4c56)[nH]c2-c2ccc(/C=C/C(=O)O)cc2)cc1 [Compound 80] | 20 | 10
6 | O=C(O)/C=C/c1ccc(-c2nc(-c3cc(Cl)cc(Cl)c3Cl)[nH]c2-c2ccc(/C=C/C(=O)O)cc2)cc1 [Compound 82] | 12.8 | 11.9
7 | O=C(O)/C=C/c1ccc(-c2nc(-c3cccc(F)c3)[nH]c2-c2ccc(/C=C/C(=O)O)cc2)cc1 [Compound 61] | 0.955 | 0.97
8 | COc1ccc(C(=O)OC(c2ccc(/C=C/C(=O)O)cc2)C(OC(=O)c2ccc(OC)cc2)c2ccc(/C=C/C(=O)O)cc2)cc1 (stereo not shown) [Compound 162] | – | 1.8
9 | O=C(O)/C=C/c1ccc(-c2nc3cccnc3nc2-c2ccc(/C=C/C(=O)O)cc2)cc1 [Compound 160] | 1.52 | 0.98
10 | COc1ccc(-c2nc(-c3ccc(/C=C/C(=O)O)cc3)c(-c3ccc(/C=C/C(=O)O)cc3)[nH]2)cc1F [Compound 83] | 1.5 | 1.3
11 | COc1ccc(C(=O)OC(c2ccc(/C=C/C(=O)O)cc2)C(O)c2ccc(/C=C/C(=O)O)cc2)cc1 (stereo not shown) [Compound 25] | – | 0.89
12 | O=C(O)/C=C/c1ccc(-c2nc3cc(Cl)c(Cl)cc3nc2-c2ccc(/C=C/C(=O)O)cc2)cc1 [Compound 153] | 1.91 | 2.65
13 | Cc1ccc2nc(-c3ccc(/C=C/C(=O)O)cc3)c(-c3ccc(/C=C/C(=O)O)cc3)nc2c1 [Compound 154] | 2.45 | 3.83
14 | O=C(O)/C=C/c1ccc(-c2nc(-c3ccc4c(c3)OCO4)[nH]c2-c2ccc(/C=C/C(=O)O)cc2)cc1 [Compound 85] | 1.8 | 1.5
15 | CCCCCCCCNC(=O)/C=C/c1ccc(C(=O)C(=O)c2ccc(/C=C/C(=O)O)cc2)cc1 [Compound 13] | – | 31
16 | O=C(O)/C=C/c1ccc(-c2nc(/C=C/c3ccccc3)[nH]c2-c2ccc(/C=C/C(=O)O)cc2)cc1 [Compound 79] | 8.2 | 4.8
17 | O=C(O)/C=C/c1ccc(-c2nc(-c3cc(F)cc(F)c3)[nH]c2-c2ccc(/C=C/C(=O)O)cc2)cc1 [Compound 65] | 1.4 | 1.3
18 | CCCCCCC(OC(=O)c1ccc(/C=C/C(=O)O)cc1)C(=O)NCC(=O)OCC (stereo not shown) [Compound 32] | – | 1.8
19 | O=C(O)/C=C/c1ccc(-c2nc(-c3ccc4ccccc4n3)[nH]c2-c2ccc(/C=C/C(=O)O)cc2)cc1 [Compound 63] | 2.4 | 1.7
20 | COc1ccc(-c2nc(-c3ccc(/C=C/C(=O)O)cc3)c(-c3ccc(/C=C/C(=O)O)cc3)s2)cc1 [Compound 168] | – | 3
21 | CCCCNC(=O)C(OC(=O)c1ccc(/C=C/C(=O)O)cc1)C(=O)c1ccc(F)cc1 (stereo not shown) [Compound 144] | – | 3

Compounds with a lower IC50 [2], results first:

Row | IC50 [1] [µM] | IC50 [2] [µM] | Structure (SMILES)
22 | 1.2 | 0.85 | O=C(O)/C=C/c1ccc(-c2nc3ccc([N+](=O)[O-])cc3nc2-c2ccc(/C=C/C(=O)O)cc2)cc1 [Compound 152]
23 | – | 0.8 | COC(=O)CCCCC(=O)OC(c1ccc(/C=C/C(=O)O)cc1)C(O)c1ccc(/C=C/C(=O)O)cc1 (stereo not shown) [Compound 29]
24 | 1.15 | 0.79 | O=C(O)/C=C/c1ccc(-c2nc(-c3ccccc3F)[nH]c2-c2ccc(/C=C/C(=O)O)cc2)cc1 [Compound 78]
25 | 8 | 0.7 | O=C(O)/C=C/c1ccc(-c2nc(C(=O)OCc3ccccc3)c(-c3ccc(/C=C/C(=O)O)cc3)[nH]2)cc1 [Compound 136]
26 | 3.4 | 0.68 | O=C(O)/C=C/c1ccc(-c2nc(-c3ccccc3)[nH]c2-c2ccc(/C=C/C(=O)O)cc2)cc1 [Compound 75]
27 | 2.8 | 0.62 | N#Cc1ccc(-c2nc(-c3ccc(/C=C/C(=O)O)cc3)c(-c3ccc(/C=C/C(=O)O)cc3)[nH]2)cc1 [Compound 73]
28 | – | 0.5 | COc1ccc(C(=O)OC(C(=O)c2ccc(/C=C/C(=O)O)cc2)c2ccc(/C=C/C(=O)O)cc2)cc1 (stereo not shown) [Compound 27]
29 | 0.53 | 0.43 | O=C(O)/C=C/c1ccc(-c2nc(-c3ccc4c(c3)OCCO4)[nH]c2-c2ccc(/C=C/C(=O)O)cc2)cc1 [Compound 71]
30 | – | 0.27 | O=C(O)/C=C/c1ccc(C(O)C(O)c2ccc(/C=C/C(=O)O)cc2)cc1 (stereo not shown) [Compound 23]
31 | 0.56 | 0.1 | O=C(O)/C=C/c1ccc(-c2nc[nH]c2-c2ccc(/C=C/C(=O)O)cc2)cc1 [Compound 55]
